Measurements from EP0326331B1, “Substituted quinolines and cinnolines” (Dow AgroSciences LLC, priority 1988, dated 1989).

Legend:
Format in all cases: in vivo
[1] = test system: Erysiphe graminis tritici (powdery mildew); test: Test 1 greenhouse foliar spray screen, powdery mildew on wheat; settings: disease control rating, foliar spray on wheat, 400 ppm (+++ at 100 ppm)
[2] = test system: Pyricularia oryzae (rice blast); test: whole plant or invertebrate; settings: disease control rating, foliar spray on rice, 400 ppm (+++ at 100 ppm)
[3] = test system: Puccinia recondita tritici (leaf rust); test: Test 1 greenhouse foliar spray screen, leaf rust on wheat; settings: disease control rating, foliar spray on wheat, 400 ppm (+++ at 100 ppm)
[4] = test system: Botrytis cinerea (gray mold); test: Test 1 greenhouse foliar spray screen, gray mold on grape berries; settings: disease control rating, spray on grape berries, 400 ppm (+++ at 100 ppm)
[5] = test system: Pseudoperonospora cubensis (downy mildew); test: Test 1 greenhouse foliar spray screen, downy mildew on squash; settings: disease control rating, foliar spray on squash, 400 ppm (+++ at 100 ppm)
[6] = test system: Venturia inaequalis (apple scab); test: Test 1 greenhouse foliar spray screen, apple scab on apple seedling; settings: disease control rating, foliar spray on apple seedling, 400 ppm (+++ at 100 ppm)
[7] = test system: Septoria tritici (leaf blotch); test: Test 1 greenhouse foliar spray screen, leaf blotch on wheat; settings: disease control rating, foliar spray on wheat, 400 ppm (+++ at 100 ppm)
[8] = test system: southern armyworm (Spodopetra eridania Cramer); test: Mite/insect screen, SAW; settings: Spodoptera eridania, percent mortality; SAW, SM & MA RATE 200 PPM; read-out: SAW RESULTS %
How it was run: (§1)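 Percent mortality was scored after standard exposure periods, following spraying of leaves to runoff (both surfaces, 10 psi, 1 h drying) with water dilutions of compound in emulsifier-containing acetone/alcohol (50:50). Armyworms received excised treated leaves in dishes.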

[9] = test system: Twospotted spider mites (Tetranychus urticae Koch); test: Mite/insect screen, SM; settings: Tetranychus urticae, percent mortality; SAW, SM & MA RATE 200 PPM; read-out: SM RESULTS %
How it was run: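 Read-out: percent mortality after standard exposure periods. Test solutions were water dilutions of compound dissolved in acetone/alcohol (50:50) with emulsifier blends; leaves were sprayed to runoff on both surfaces and air-dried for one hour before exposure.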

[10] = test system: melon aphids (Aphis gossypii Glover); test: Mite/insect screen, MA; settings: Aphis gossypii, percent mortality; SAW, SM & MA RATE 200 PPM; read-out: MA RESULTS %
How it was run: as §1

[11] = test system: corn rootworm; test: Mite/insect screen, CRW; settings: percent mortality; CRW RATE 12.00 PPM; read-out: CRW RESULTS %
How it was run: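 Corn rootworm mortality (%) was evaluated following standard exposure times. Test material was emulsified by dissolution in acetone/alcohol (1:1) containing sulfonate/nonionic emulsifier blends TOXIMUL R (23 g/L) and TOXIMUL S (13 g/L), and water-diluted to the indicated doses.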

| SMILES | POWD MDEW [1] | RICE BLAST [2] | LEAF RUST [3] | GRAY MOLD [4] | DOWN MDEW [5] | APPL SCAB [6] | LEAF BLOT [7] | mortality at 200 ppm [8] [%] | mortality at 200 ppm [9] [%] | mortality at 200 ppm [10] [%] | mortality at 12 ppm [11] [%] |
| --- | --- | --- | --- | --- | --- | --- | --- | --- | --- | --- | --- |
| Cc1ccc(CCNc2ccnc3ccccc23)cc1 [Example 19, N-[2-(4-methylphenyl)ethyl]-4-quinolinamine] | + (20-89% control at 400 ppm) | ++ (90-100% control at 400 ppm) | ++ (90-100% control at 400 ppm) | - (0-19% control at 400 ppm) | +++ (90-100% control at 100 ppm) | - (0-19% control at 400 ppm) | - (0-19% control at 400 ppm) | 0 | 0 | 0 | 0 |
| Clc1ccc(CCNc2ccnc3ccccc23)cc1 [Example 20, N-[2-(4-chlorophenyl)ethyl]-4-quinolinamine] | + (20-89% control at 400 ppm) | + (20-89% control at 400 ppm) | + (20-89% control at 400 ppm) | - (0-19% control at 400 ppm) | +++ (90-100% control at 100 ppm) | - (0-19% control at 400 ppm) | - (0-19% control at 400 ppm) | 0 | 0 | 0 | 0 |
| CC(CNc1ccnc2ccccc12)c1ccccc1 (centres unmarked) [Example 21, N-(2-phenylpropyl)-4-quinolinamine] | + (20-89% control at 400 ppm) | + (20-89% control at 400 ppm) | + (20-89% control at 400 ppm) | - (0-19% control at 400 ppm) | ++ (90-100% control at 400 ppm) | - (0-19% control at 400 ppm) | - (0-19% control at 400 ppm) | 0 | 0 | 0 | 0 |
| COc1ccc(CCNc2ccnc3ccccc23)cc1 [Example 22, N-[2-(4-methoxyphenyl)-ethyl]-4-quinolinamine] | + (20-89% control at 400 ppm) | + (20-89% control at 400 ppm) | + (20-89% control at 400 ppm) | - (0-19% control at 400 ppm) | +++ (90-100% control at 100 ppm) | - (0-19% control at 400 ppm) | - (0-19% control at 400 ppm) | 0 | 0 | 0 | 0 |
| c1ccc(C(CNc2ccnc3ccccc23)c2ccccc2)cc1 [Example 23, N-(2,2-diphenylethyl)-4-quinolinamine] | + (20-89% control at 400 ppm) | + (20-89% control at 400 ppm) | + (20-89% control at 400 ppm) | - (0-19% control at 400 ppm) | +++ (90-100% control at 100 ppm) | - (0-19% control at 400 ppm) | - (0-19% control at 400 ppm) | 0 | 0 | 0 | 0 |
| CC(Cc1ccccc1)Nc1ccnc2ccccc12 (centres unmarked) [Example 24, N-(1-methyl-2-phenylethyl)-4-quinolinamine] | + (20-89% control at 400 ppm) | + (20-89% control at 400 ppm) | + (20-89% control at 400 ppm) | - (0-19% control at 400 ppm) | +++ (90-100% control at 100 ppm) | - (0-19% control at 400 ppm) | - (0-19% control at 400 ppm) | 0 | 0 | 0 | 0 |
| Clc1cc(NCCc2ccccc2)c2ccccc2n1 [Example 25, 2-chloro-N-(2-phenylethyl)-4-quinolinamine] | + (20-89% control at 400 ppm) | + (20-89% control at 400 ppm) | ++ (90-100% control at 400 ppm) | - (0-19% control at 400 ppm) | +++ (90-100% control at 100 ppm) | - (0-19% control at 400 ppm) | - (0-19% control at 400 ppm) | 0 | 0 | 0 | 0 |
| OC(CNc1ccnc2ccccc12)c1ccccc1 (stereo not drawn) [Example 26, α-[(4-quinolinylamino)methyl]benzenemethanol] | + (20-89% control at 400 ppm) | + (20-89% control at 400 ppm) | - (0-19% control at 400 ppm) | - (0-19% control at 400 ppm) | +++ (90-100% control at 100 ppm) | - (0-19% control at 400 ppm) | - (0-19% control at 400 ppm) | 0 | 0 | 0 | 0 |
| Cc1cccc2c(NCCc3ccccc3)ccnc12 [Example 27, 8-methyl-N-(2-phenylethyl)-4-quinolinamine] | + (20-89% control at 400 ppm) | ++ (90-100% control at 400 ppm) | + (20-89% control at 400 ppm) | - (0-19% control at 400 ppm) | +++ (90-100% control at 100 ppm) | - (0-19% control at 400 ppm) | - (0-19% control at 400 ppm) | 0 | 0 | 0 | 0 |
| Cc1cc(C)c2nccc(NCCc3ccccc3)c2c1 [Example 28, 6,8-dimethyl-N-(2-phenylethyl)-4-quinolinamine] | + (20-89% control at 400 ppm) | ++ (90-100% control at 400 ppm) | + (20-89% control at 400 ppm) | - (0-19% control at 400 ppm) | +++ (90-100% control at 100 ppm) | - (0-19% control at 400 ppm) | - (0-19% control at 400 ppm) | 0 | 0 | 0 | 0 |
| Cc1ccc2nccc(NCCc3ccccc3)c2c1 [Example 30, 6-methyl-N-(2-phenylethyl)-4-quinolinamine] | - (0-19% control at 400 ppm) | + (20-89% control at 400 ppm) | + (20-89% control at 400 ppm) | - (0-19% control at 400 ppm) | +++ (90-100% control at 100 ppm) | - (0-19% control at 400 ppm) | - (0-19% control at 400 ppm) | 0 | 0 | 0 | 0 |
| Clc1ccc2c(NCCc3ccccc3)ccnc2c1 [Example 31, 7-chloro-N-(2-phenylethyl)-4-quinolinamine] | ++ (90-100% control at 400 ppm) | + (20-89% control at 400 ppm) | + (20-89% control at 400 ppm) | - (0-19% control at 400 ppm) | +++ (90-100% control at 100 ppm) | - (0-19% control at 400 ppm) | - (0-19% control at 400 ppm) | 0 | 0 | 0 | 0 |
| Cc1ccc2c(NCCc3ccccc3)ccnc2c1C [Example 32, 7,8-dimethyl-N-(2-phenylethyl)-4-quinolinamine] | + (20-89% control at 400 ppm) | + (20-89% control at 400 ppm) | - (0-19% control at 400 ppm) | - (0-19% control at 400 ppm) | +++ (90-100% control at 100 ppm) | - (0-19% control at 400 ppm) | - (0-19% control at 400 ppm) | 0 | 0 | 0 | 0 |
